Experimental data taken from PMC10709440, “High-throughput ligand profile characterization in novel cell lines expressing seven heterologous insect olfactory receptors for the detection of volatile plant biomarkers” (Scientific Reports, 2023).

Tests used:
Drosophila OR47a = biological target: T1, Drosophila OR47a (Drosophila melanogaster, UniProt P81921); test: cell-based; set-up: GCaMP6 calcium fluorescence in stable HEK293 OR+ORCO lines; peak dF normalised to 50 uM VUAA1 (=1); conditions: HEK293; relative to 50 uM VUAA1 response; below 0.05 set to 0; read-out: % activation
T1 construct: expressed in transfected cells
T1 sequence (P81921 1-385): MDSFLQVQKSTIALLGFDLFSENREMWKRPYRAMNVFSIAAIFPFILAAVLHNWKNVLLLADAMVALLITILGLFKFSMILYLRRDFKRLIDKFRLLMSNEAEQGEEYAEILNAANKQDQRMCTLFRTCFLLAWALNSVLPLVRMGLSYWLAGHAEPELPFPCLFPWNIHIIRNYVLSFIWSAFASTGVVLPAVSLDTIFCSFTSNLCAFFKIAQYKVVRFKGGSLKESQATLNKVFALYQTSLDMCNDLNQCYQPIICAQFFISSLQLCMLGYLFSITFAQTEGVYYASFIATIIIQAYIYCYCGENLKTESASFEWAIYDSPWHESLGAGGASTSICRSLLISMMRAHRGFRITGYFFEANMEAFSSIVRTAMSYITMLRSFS
T1 sequence (Q9VNB5 1-486 partner): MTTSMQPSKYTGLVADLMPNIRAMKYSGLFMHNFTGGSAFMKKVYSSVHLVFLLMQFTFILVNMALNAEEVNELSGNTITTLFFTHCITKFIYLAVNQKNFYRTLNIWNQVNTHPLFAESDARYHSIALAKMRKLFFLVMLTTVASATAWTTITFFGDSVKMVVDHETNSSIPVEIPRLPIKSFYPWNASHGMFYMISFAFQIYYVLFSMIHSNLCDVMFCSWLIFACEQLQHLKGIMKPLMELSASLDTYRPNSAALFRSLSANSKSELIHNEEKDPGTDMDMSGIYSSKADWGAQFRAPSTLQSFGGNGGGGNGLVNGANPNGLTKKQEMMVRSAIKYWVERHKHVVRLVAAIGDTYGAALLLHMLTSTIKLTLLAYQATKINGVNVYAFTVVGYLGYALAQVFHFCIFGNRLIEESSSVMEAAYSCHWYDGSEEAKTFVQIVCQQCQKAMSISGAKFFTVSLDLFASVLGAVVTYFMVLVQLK
Protocol: (§1) Twelve thousand to 18,000 cells were plated into each well of a black wall, transparent bottom 384-well microplate (Greiner) 48 h or 72 h before the measurements and were simultaneously treated with 1 μg/mL doxycycline. Typically, three columns were filled with one OR expressing cell line, each row was treated with the same compound (three technical replicates for each OR), and each responsive VOC-OR combination was measured at least three times on different days. The plate has 24 columns, thus we could record responses in up to eight different cell lines in each plate. On the day of the experiment, the growth medium was replaced with 20 µL assay buffer/well (140 mM NaCl, 5 mM KCl, 2 mM CaCl2, 1 mM MgCl2, 5 mM HEPES-Na, 20 mM glucose, pH 7.3, 340 mOsm). […] Baseline fluorescence (F0) was recorded for 5 s, after which 7 µL VOC buffer (140 mM NaCl, 5 mM KCl, 2 mM CaCl2, 1 mM MgCl2, 5 mM HEPES-Na, 31 mM glucose, 0.1% DMSO, pH 7.3, 340 mOsm) was injected into each well in one row and the fluorescence response was recorded for an additional 30 s, at a rate of one read/sec. VOC solutions (VOC buffer with 4× concentration of the final measured VOC concentration, 9 µL/well was injected) were measured on the same wells in a second round with the same protocol. Each individual concentration of a specific VOC sample was recorded in three wells for the same cell line on the same microplate. The raw data were exported in xls file format, F0 and FMAX values, and the fluorescence intensity changes (∆F) were calculated in Excel (Microsoft) (Supplementary file Data summary.xlsx) using the following equation: ΔF=FMAX-F0/F0 (see also Fig. 1C). On each plate, we recorded the response of each cell line to 50 µM VUAA1. The average of these ∆F values of each cell line were used to calculate the VUAA1-normalized values for the rest of the plate, by dividing VOC response ∆F values by the average VUAA1 response ∆F value of the corresponding OR cell line. Each VOC-OR combination was measured three times as tec The recorded FMAX, F0, ∆F, VUAA1-normalized ∆F values, as well as the OR name, the name of the tested sample, and the final concentration for each well were copied into supplementary file Data summary.xlsx, that was used to summarize all the plates recorded. Here, the averages of the measurements were calculated for each receptor-VOC-concentration combination. […] Each VOC was measured at 1, 10, and 100 µM final concentration on each receptor. VUAA1-normalized response was calculated as described in methods. Values are averages of at least three biological replicates for responsive combinations and two for the non-responsive combinations. The chemical structures of the strong and medium ligands are shown for each cell line. Heat map: white-green colors correspond to the lowest-highest values measured for each cell line.

Drosophila OR98a = biological target: T2, Drosophila OR98a (Drosophila melanogaster, UniProt Q9VAZ3); test: cell-based; set-up: GCaMP6 calcium fluorescence in stable HEK293 OR+ORCO lines; peak dF normalised to 50 uM VUAA1 (=1); conditions: HEK293; relative to 50 uM VUAA1 response; below 0.05 set to 0; read-out: % activation
T2 construct: expressed in transfected cells
T2 sequence (Q9VAZ3 1-397): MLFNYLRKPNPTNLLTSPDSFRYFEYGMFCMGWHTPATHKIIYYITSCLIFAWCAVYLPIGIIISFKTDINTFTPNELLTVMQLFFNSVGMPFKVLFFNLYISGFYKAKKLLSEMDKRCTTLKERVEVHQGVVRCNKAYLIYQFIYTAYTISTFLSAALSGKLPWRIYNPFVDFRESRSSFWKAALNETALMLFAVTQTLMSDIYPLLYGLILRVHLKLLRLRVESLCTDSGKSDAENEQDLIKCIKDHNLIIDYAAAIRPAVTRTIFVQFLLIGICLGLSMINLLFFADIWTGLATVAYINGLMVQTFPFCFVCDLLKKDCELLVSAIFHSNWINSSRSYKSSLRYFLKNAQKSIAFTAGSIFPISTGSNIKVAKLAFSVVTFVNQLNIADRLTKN
T2 sequence (Q9VNB5 1-486 partner): T1 sequence (Q9VNB5 1-486 partner)
Protocol: as §1

Question: Which results are given for `CC/C=C/CCO` [e3-hexenol]?
Answer: activity at 1 µM (Drosophila OR47a): 6.26%; activity at 10 µM (Drosophila OR47a): 0%; activity at 100 µM (Drosophila OR47a): 14%; activity at 1 µM (Drosophila OR98a): 0%; activity at 10 µM (Drosophila OR98a): 0%; activity at 100 µM (Drosophila OR98a): 0%
